Assay results: patent US9539260B2, “Dihydro-benzo-oxazine and dihydro-pyrido-oxazine derivatives” (Novartis AG, priority 2012, dated 2017)
pIC50: −log10 of the molar value.

Assays:
PI3K alpha = PI3K alpha (Homo sapiens (Human), UniProt P42336); test: Enzymatic PI3K alpha isoform inhibition (lipid kinase activity, Kinase-Glo luminescence); assay type: biochemical; settings: Enzymatic assay
How it was run: (§1)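 IC50s derive from 4-parameter logistic fits of % inhibition across 8 concentrations (usually 10 to 0.003 μM). Lipid kinase reaction: PI3K (10 nM) plus phosphatidylinositol (5 μg/mL) started with 2 μM ATP, stopped near 50% ATP depletion; leftover ATP quantified by Kinase-Glo luminescence.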

PI3K delta = PI3K delta (Homo sapiens (Human), UniProt O00329); test: Enzymatic PI3K delta isoform inhibition (lipid kinase activity, Kinase-Glo luminescence); assay type: biochemical; settings: Enzymatic assay
How it was run: as §1

Chain of PI3K delta (O00329 other isoform, or with tags, fused parts or gaps linker GGGGGG): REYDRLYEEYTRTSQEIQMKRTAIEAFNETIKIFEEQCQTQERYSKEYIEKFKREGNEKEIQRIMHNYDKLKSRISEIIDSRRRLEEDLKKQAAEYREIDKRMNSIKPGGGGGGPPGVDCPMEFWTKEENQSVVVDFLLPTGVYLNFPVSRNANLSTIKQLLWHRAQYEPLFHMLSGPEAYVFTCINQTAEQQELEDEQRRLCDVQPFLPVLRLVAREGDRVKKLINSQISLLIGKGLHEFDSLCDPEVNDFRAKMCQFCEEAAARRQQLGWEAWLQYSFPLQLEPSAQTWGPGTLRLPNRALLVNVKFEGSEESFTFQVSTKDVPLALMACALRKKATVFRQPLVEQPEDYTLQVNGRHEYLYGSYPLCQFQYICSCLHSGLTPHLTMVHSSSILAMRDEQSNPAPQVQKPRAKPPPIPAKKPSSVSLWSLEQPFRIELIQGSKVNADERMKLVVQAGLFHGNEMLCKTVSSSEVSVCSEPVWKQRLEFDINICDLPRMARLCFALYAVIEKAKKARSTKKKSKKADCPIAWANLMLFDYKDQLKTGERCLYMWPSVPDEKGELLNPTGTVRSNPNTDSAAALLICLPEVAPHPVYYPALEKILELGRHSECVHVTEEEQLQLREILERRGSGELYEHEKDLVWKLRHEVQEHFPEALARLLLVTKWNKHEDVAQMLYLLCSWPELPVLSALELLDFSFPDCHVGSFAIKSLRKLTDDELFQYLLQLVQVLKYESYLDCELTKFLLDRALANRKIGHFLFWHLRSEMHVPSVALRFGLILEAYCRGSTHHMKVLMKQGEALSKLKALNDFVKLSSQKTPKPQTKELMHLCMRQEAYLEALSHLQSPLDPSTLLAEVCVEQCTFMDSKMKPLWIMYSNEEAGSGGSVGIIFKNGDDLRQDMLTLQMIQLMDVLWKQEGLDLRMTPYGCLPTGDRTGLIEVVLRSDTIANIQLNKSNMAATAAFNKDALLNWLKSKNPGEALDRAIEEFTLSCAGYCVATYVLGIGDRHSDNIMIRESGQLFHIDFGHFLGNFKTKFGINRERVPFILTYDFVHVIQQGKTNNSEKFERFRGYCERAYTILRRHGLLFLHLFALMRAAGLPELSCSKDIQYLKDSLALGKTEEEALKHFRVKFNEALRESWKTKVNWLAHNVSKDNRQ
Chain of PI3K alpha (P42336 other isoform, or with tags, fused parts or gaps): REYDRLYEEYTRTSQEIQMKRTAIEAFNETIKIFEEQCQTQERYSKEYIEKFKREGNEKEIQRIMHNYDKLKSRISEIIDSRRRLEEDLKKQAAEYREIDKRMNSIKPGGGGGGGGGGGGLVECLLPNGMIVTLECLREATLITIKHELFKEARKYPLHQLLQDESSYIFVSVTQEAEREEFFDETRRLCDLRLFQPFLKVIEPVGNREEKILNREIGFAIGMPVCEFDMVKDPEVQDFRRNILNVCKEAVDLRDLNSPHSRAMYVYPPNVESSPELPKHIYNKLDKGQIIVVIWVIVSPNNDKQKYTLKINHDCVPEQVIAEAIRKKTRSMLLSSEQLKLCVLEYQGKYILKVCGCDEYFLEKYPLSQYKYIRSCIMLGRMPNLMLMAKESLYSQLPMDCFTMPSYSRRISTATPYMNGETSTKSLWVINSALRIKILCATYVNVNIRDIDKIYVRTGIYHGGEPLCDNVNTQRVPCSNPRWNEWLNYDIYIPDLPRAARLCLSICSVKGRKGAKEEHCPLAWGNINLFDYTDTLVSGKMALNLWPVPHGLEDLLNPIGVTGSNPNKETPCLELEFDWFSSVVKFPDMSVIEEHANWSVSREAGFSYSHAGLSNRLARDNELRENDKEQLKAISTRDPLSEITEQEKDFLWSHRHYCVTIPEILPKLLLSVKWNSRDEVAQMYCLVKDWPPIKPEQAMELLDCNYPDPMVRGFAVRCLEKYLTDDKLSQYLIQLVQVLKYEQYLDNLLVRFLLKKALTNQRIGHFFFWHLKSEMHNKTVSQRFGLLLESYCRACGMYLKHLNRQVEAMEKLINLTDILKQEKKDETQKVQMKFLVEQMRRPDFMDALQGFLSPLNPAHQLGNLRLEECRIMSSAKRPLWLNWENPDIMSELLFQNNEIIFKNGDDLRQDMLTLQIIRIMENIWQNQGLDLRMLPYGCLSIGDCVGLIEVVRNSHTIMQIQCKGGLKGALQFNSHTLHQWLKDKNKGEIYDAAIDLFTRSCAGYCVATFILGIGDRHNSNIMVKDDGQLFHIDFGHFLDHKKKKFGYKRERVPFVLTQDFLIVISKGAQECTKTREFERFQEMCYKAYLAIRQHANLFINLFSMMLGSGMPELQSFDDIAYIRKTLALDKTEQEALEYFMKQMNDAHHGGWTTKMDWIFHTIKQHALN

| SMILES | pIC50 (PI3K alpha) | pIC50 (PI3K delta) |
| --- | --- | --- |
| COc1ncc(N2CCOc3ccc(O[C@H]4CCN(C(=O)CCO)C4)cc32)cc1Cl [Example B107, 1-{(S)-3-[4-(5-Chloro-6-methoxy-pyridin-3-yl)-3,4-dihydro-2H-benzo[1,4]oxazin-6-yloxy]-pyrrolidin-1-yl}-3-hydroxy-propan-1-one] | 6.62 | 8.40 |
| COc1ncc(N2CCOc3ccc(O[C@H]4CCN(C(=O)C5CCS(=O)(=O)C5)C4)cc32)cc1F (stereo partly drawn) [Example B101, (1,1-Dioxo-tetrahydro-1lambda*6*-thiophen-3-yl)-{(S)-3-[4-(5-fluoro-6-methoxy-pyridin-3-yl)-3,4-dihydro-2H-benzo[1,4]oxazin-6-yloxy]-pyrrolidin-1-yl}-methanone] | 6.33 | 7.82 |
| CCC(=O)N1CC[C@H](Oc2ccc3c(c2)N(c2ccc(OC)c(S(=O)(=O)N(C)OC)c2)CCO3)C1 [Example A29, 2,N-Dimethoxy-N-methyl-5-[6-((S)-1-propionyl-pyrrolidin-3-yloxy)-2,3-dihydro-benzo[1,4]oxazin-4-yl]-benzenesulfonamide] | 5.56 | 7.38 |
| COc1ncc(N2CCOc3cnc(O[C@H]4CCN(C(=O)C5CCOCC5)C4)cc32)cc1C#N [Example F4, 2-Methoxy-5-{7-[(S)-1-(tetrahydro-pyran-4-carbonyl)-pyrrolidin-3-yloxy]-2,3-dihydro-pyrido[3,4-b][1,4]oxazin-1-yl}-nicotinonitrile] | 6.24 | 8.52 |
| COc1ncc(N2CCOc3ccc(O[C@H]4CCN(C(=O)c5cn(C)cn5)C4)cc32)cc1C [Example B89, {(S)-3-[4-(6-Methoxy-5-methyl-pyridin-3-yl)-3,4-dihydro-2H-benzo[1,4]oxazin-6-yloxy]-pyrrolidin-1-yl}-(1-methyl-1H-imidazol-4-yl)-methanone] | 6.88 | 8.05 |
| COc1ncc(N2CCOc3ccc(O[C@H]4CCN(C(=O)CC#N)C4)cc32)cc1Cl [Example B109, 3-{(S)-3-[4-(5-Chloro-6-methoxy-pyridin-3-yl)-3,4-dihydro-2H-benzo[1,4]oxazin-6-yloxy]-pyrrolidin-1-yl}-3-oxo-propionitrile] | 6.93 | > 8.52 |
| COc1ncc(N2CCOc3ccc(O[C@H]4CCN(C(=O)CCS(C)(=O)=O)C4)cc32)cc1F [Example B112, 1-{(S)-3-[4-(5-Fluoro-6-methoxy-pyridin-3-yl)-3,4-dihydro-2H-benzo[1,4]oxazin-6-yloxy]-pyrrolidin-1-yl}-3-methanesulfonyl-propan-1-one] | 6.42 | 7.59 |
| COc1ncc(N2CCOc3ccc(O[C@H]4CCN(C(=O)C5CCCCC5)C4)cc32)cc1C#N [Example D13, 5-[6-((S)-1-Cyclohexanecarbonyl-pyrrolidin-3-yloxy)-2,3-dihydro-benzo[1,4]oxazin-4-yl]-2-methoxy-nicotinonitrile] | 6.28 | 8.30 |
| COc1ncc(N2CCOc3ccc(O[C@H]4CCN(C(=O)c5cncnc5)C4)cc32)cc1F [Example B104, {(S)-3-[4-(5-Fluoro-6-methoxy-pyridin-3-yl)-3,4-dihydro-2H-benzo[1,4]oxazin-6-yloxy]-pyrrolidin-1-yl}-pyrimidin-5-yl-methanone] | 5.86 | 6.79 |
| COc1ncc(N2CCOc3ccc(O[C@H]4CCN(C(=O)c5ccnn5C)C4)cc32)cc1C#N [Example C8, 2-Methoxy-5-{6-[(S)-1-(2-methyl-2H-pyrazole-3-carbonyl)-pyrrolidin-3-yloxy]-2,3-dihydro-enzo[1,4]oxazin-4-yl}-nicotinonitrile] | 6.43 | 7.89 |
| Cc1cc(N2CCOc3ccc(O[C@H]4CCN(C(=O)[C@H]5CC[C@H](O)CC5)C4)cc32)cnc1S(C)(=O)=O [Example B50, (4-Hydroxy-cyclohexyl)-{(S)-3-[4-(6-methanesulfonyl-5-methyl-pyridin-3-yl)-3,4-dihydro-2H-benzo[1,4]oxazin-6-yloxy]-pyrrolidin-1-yl}-methanone] | 6.03 | 7.89 |
